Counter-ions that a name gives are not always drawn. Some results are limits rather than exact numbers.

The text below walks through data of US20050080090A1, “Naphthalene derivatives” (priority 1993, published 2005).

On to `COc1cccc(-c2ccc3cccc(N4CCN(C)CC4)c3c2)c1` (as salt: hydrochloride) [Example 81, 7-(3-Methoxyphenyl)-1-(4-methylpiperazin-1-yl)naphthalene], for which the melting point is 236 to 238 °C.
For `CN1CCN(c2cccc3ccc(NC(=O)c4cccc([N+](=O)[O-])c4)cc23)CC1` [Example 4, 7-(3-Nitrobenzamido)-1-(4-methyl-1-piperazinyl)-naphthalene] the value was 182 to 184 °C; for `CN1CCN(c2cccc3ccc(NCc4ccccc4)cc23)CC1` [Example 14, 7-(Benzylamino)-1-(4-methyl-1-piperazinyl)-naphthalene], 115 to 117 °C.
For `CN1CCN(c2cccc3ccc(N)cc23)CC1` the value was 157 to 159 °C; for `CN1CCN(c2cccc3ccc(NC(=O)c4ccc(Cl)cc4)cc23)CC1` [Example 8, 7-(4-Chlorobenzamido)-1-(4-methyl-1-piperazinyl)-naphthalene], 174 to 175 °C.
For `CN1CCN(c2cccc3ccc(C(=O)NCc4ccc(Cl)cc4)cc23)CC1` [Example 80, 8-(4-Methylpiperazin-1-yl)naphthalene-2-carboxylic Acid 4-chlorobenzylamide] the value was 72 to 74 °C; for `CN1CCN(c2cccc3ccc(Nc4ncccc4[N+](=O)[O-])cc23)CC1` [Example 25, 7-(3-Nitro-2-pyridinylamino)-1-(4-methyl-1-piperazinyl)-naphthalene], 127.5 to 129 °C; for `c1cc(N2CCNCC2)c2cc(-n3cnc4ncccc43)ccc2c1` (as salt: hydrochloride), more than 250 °C.
As to `CC(=O)Nc1ccc2cccc(N3CCN(C)CC3)c2c1`, the melting point fell in the range of 177 to 180 °C.
For `O=C(Nc1ccc2cccc(C[C@H]3CCCN3)c2c1)c1ccc(Cl)cc1` (as salt: HCl) [Example 71, 7-(4-Chlorobenzamido)-1-(pyrrolidin-2-(R)-ylmethyl)-naphthalene] the value was 230 to 231.5 °C; for `CNS(=O)(=O)c1cccc(-c2ccc3cccc(N4CCN(C)CC4)c3c2)c1` [Example 41, 7-(3-Methylaminosulfonylphenyl)-1-(4-methyl-1-piperazinyl)naphthalene], 147.5 to 148 °C; for `CN1CCN(c2cccc3ccc(-n4cnc5ccccc54)cc23)CC1` [Example 37, 7-(Benzimidazol-1-yl)-1-(4-methyl-1-piperazinyl)-naphthalene], 148 to 150 °C.
The compound `CN1CCN(c2cccc3ccc(C(O)c4ccccc4)cc23)CC1` (stereo not drawn) [Example 44, 7-(α-Hydroxybenzyl)-1-(4-methyl-1-piperazinyl)-naphthalene] came in with a melting point of 162.5 to 163 °C.
For `CN1CCN(c2cccc3ccc(NC(=O)c4cccc(C#N)c4)cc23)CC1` [Example 9, 7-(3-Cyanobenzamido)-1-(4-methyl-1-piperazinyl)-naphthalene] the value was 220 to 222 °C; for `CCCN1CCN(c2cccc3ccc(NC(=O)c4ccc(Cl)cc4)cc23)CC1` [Example 66, 7-(4-Chlorobenzamido)-1-(4-propyl-1-piperazinyl)-naphthalene], 130 to 132 °C.
Compound `CN1CCN(c2cccc3ccc(Nc4ncccc4NC(=O)c4ccccc4)cc23)CC1` [Example 30, 7-(3-Benzamido-2-pyridylamino)-1-(4-methyl-1-piperazinyl)-naphthalene] had a melting point of 205 to 207 °C.
The compound `Nc1ccc2cccc(N3CCNCC3)c2c1` showed a melting point of 184 to 186 °C.
For `Cl.O=CNc1ccc2cccc(C[C@H]3CCCN3)c2c1` the value was 223.5 to 224 °C.
For `COCCN1CCN(c2cccc3ccc(NC(=O)c4ccc(Cl)cc4)cc23)CC1` (as salt: hydrochloride) [Example 65, 7-(4-Chlorobenzamido)-1-(4-methoxyethyl-1-piperazinyl)-naphthalene] the value was 134 to 148 °C; for `CN1CCCC(c2cccc3ccc(N)cc23)C1` (stereo not drawn), 117 to 120 °C; for `CN1CCN(c2cccc3ccc(C(=O)c4ccccc4)cc23)CC1` [Example 43, 7-Benzoyl-1-(4-methyl-1-piperazinyl)naphthalene], 124 to 124.5 °C.
The compound `CN1CCN(c2cccc3ccc(NC(=O)OCc4ccccc4)cc23)CC1` [Example 20, 7-(Benzyloxycarbonylamino)-1-(4-methyl-1-piperazinyl)-naphthalene] yielded a melting point of 143 to 144 °C.
To `CN1CCN(c2cccc3ccc(NC(=O)c4cccc(Cl)c4)cc23)CC1` [Example 6, 7-(3-Chlorobenzamido)-1-(4-methyl-1-piperazinyl)-naphthalene] belongs 147 to 148 °C; to `CN1CCN(c2cccc3ccc(Nc4ncccc4N)cc23)CC1` (hydrate or solvate) [Example 29, 7-(3-Amino-2-pyridylamino)-1-(4-methyl-1-piperazinyl)-naphthalene], 198 to 200 °C.
For `CN1CCN(c2cccc3ccc(Nc4ccc([N+](=O)[O-])cn4)cc23)CC1` [Example 27, 7-(5-Nitro-2-pyridylamino)-1-(4-methyl-1-piperazinyl)-naphthalene] the value was 121 to 125 °C; for `CN1CCN(c2cccc3ccc(OCc4cccc(Cl)c4)cc23)CC1` [Example 54, 7-(3-Chlorobenzyloxy)-1-(4-methyl-1-piperazinyl)-naphthalene], 67.5 to 68 °C.
For the compound `CN1CCN(c2cccc3ccc(NC(=O)Nc4ccccc4)cc23)CC1` [Example 19, 7-(Phenylaminocarbonylamino)-1-(4-methyl-1-piperazinyl)-naphthalene], the melting point lay in the range of 213 to 214 °C.
To `CN1CCN(c2cccc3ccc(OS(=O)(=O)C(F)(F)F)cc23)CC1` [Example 55, 7-Trifluoromethylsulfonyloxy-1-(4-methyl-1-piperazinyl)-naphthalene] belongs 70 to 71 °C.
To `CN1CCC(c2cccc3ccc(N)cc23)CC1` belongs 169.5 to 171 °C; to `CN1CCN(c2cccc3ccc(-c4cccc(NS(C)(=O)=O)c4)cc23)CC1` [Example 42, 7-(3-Methylsulfonylaminophenyl)-1-(4-methyl-1-piperazinyl)-naphthalene], 100 to 101 °C.
Compound `CN1CCN(c2cccc3ccc(-n4cnc5ncccc54)cc23)CC1` [Example 35, 7-(Imidazolo[4,5-b]pyridin-1-yl)-1-(4-methyl-1-piperazinyl)-naphthalene] returned a melting point of 107 to 112 °C.
To `CN1CCC(c2cccc3ccc(NC(=O)c4ccccc4)cc23)C1` (stereo not drawn) [Example 69, 7-Benzamido-1-(1-methyl-3-pyrrolidinyl)-naphthalene] belongs 137 to 145 °C; to `CN1CCN(c2cccc3ccc(Nc4ccc([N+](=O)[O-])cc4[N+](=O)[O-])cc23)CC1`, 153 to 154 °C.
For `CN1CCN(c2cccc3ccc(NC(=O)c4ccc(O)cc4)cc23)CC1` [Example 10, 7-(4-Hydroxybenzamido)-1-(4-methyl-1-piperazinyl)-naphthalene] the value was 156 to 160 °C.
For `CC(=O)Nc1cccnc1Nc1ccc2cccc(N3CCN(C)CC3)c2c1` [Example 31, 7-(3-Acetamido-2-pyridylamino)-1-(4-methyl-1-piperazinyl)-naphthalene] the value was 110 to 114 °C (dec.); for `CN1CCN(c2cccc3ccc(NC(=O)C(F)(F)F)cc23)CC1`, 159 to 160 °C.

The melting point is the temperature of the solid-liquid transition.
